Values quoted from earlier work as cited in patent US20120252675A1, “HERBICIDE […] A […] E[…] A POLYA[…] THE ALKYL GROUP IS BRANCHED” (priority 2009, published 2012).

Conditions: room temperature

O=C(O)CNCP(=O)(O)O [glyphosate]
solubility in water: about 1.5 % by weight
